Source: article PMC10796436, “Peptidyl nitroalkene inhibitors of main protease rationalized by computational and crystallographic investigations as antivirals against SARS-CoV-2” (Communications Chemistry, 2024)
“And” between values parts separate entries of the source, which are not always exact repeats. Identical values can stand only once.

Assays:
M^pro [1] = target: T1, M^pro (Severe acute respiratory syndrome coronavirus 2, UniProt P0DTD1); assay: Binding to M^pro by ultracentrifugation (sedimentation method)
[2] = Stability in TRIS buffer pH 7.5 by LCMS (warhead hydration); assay type: physicochemical
Procedure: (50 mM, pH 7.5), stored at ca. 30 °C and repeatedly analyzed by LCMS (stability in buffer). […]
Analysis was performed using Mestrenova. LCMS setup: Agilent 1100 series HPLC system coupled to an Agilent 1100 series LC/MSD Trap with electron spray ionization (ESI) , Agilent Poroshell 120 EC-C18, 150x2.10 mm, 4 μm column. A linear gradient was used for elution with a ternary pump using [water/ACN/water + 0.1% formic acid] that changes ratios from 80/10/10 to 0/90/10 over the course of 10 min (0.7 mL/min). Areas of peaks in the chromatogram (detection-λ = 326 nm) were used to calculate the change in concentrations. Retention time and mass spectrum recorded in positive ionization mode were used to assign species.
In preparation of experiments with longer incubation periods (metabolic stability, permeability etc.), first general stability in aqueous systems is to be assessed. For this, a TRIS/HCl buffer system at physiological pH was chosen.
In all measurements, only two relevant “species” of FGA146 are identifiable by mass spectrometry: m/z[M+H2O+H]+ = 504 with tR = 4.8 min and m/z[M+H]+ = 486 with tR = 5.1 min.
For quantification by UV AUC, 326 nm is used as detection wavelength. Wavelengths ≤255 nm are unsuitable since extinction coefficients of free and hydrated warhead seem to vastly differ.
Table 10. […] For exemplary depiction of chromatograms that were used to generate this table, compare Figure SX below. […]
tR = 4.8 min tR = 5.1 min m/z[M+H2O+H]+ = 504 m/z[M+H]+ = 486

Permeability, PAMPA = assay type: in vitro ADME; settings: UV-quantified, 2–7 h
Procedure: Permeability. General principle after Lit.66 Incubation setup: donor (top) plate (Sigma Aldrich, MAIPNTR10), 5 µL artificial membrane (1 % (w/v) L-α-Phosphatidylcholin, Sigma Aldrich P3556, in n-dodecane, Sigma Aldrich 8205430100), acceptor (bottom) plate (Greiner, 655074).
Measurement setup – UV spectroscopy: UV-transparent measurement plate (Greiner UV-Star®, 655801), Tecan Spark® well plate reader, 200 µL sample volume, λ = 200–650 nm. Analysis was performed with AUC function in GraphPad Prism using the indicated wavelength range.
Sigma D5652; pH 7.4 or TRIS 50 mM pH 7.4) aqueous solution with varying final contents of ACN or DMSO as indicated. (“donor solution”). Similarly prepared solutions (buffer + solvent) were used as “acceptor solutions”. 150 µL of donor solution was applied onto the artificial membrane which was applied first to the donor plate. This was sealed (Greiner, 676070, Viewseal sealer). 400 µL of acceptor solution was applied to the acceptor plate. […] After this time, acceptor solution was analyzed with UV spectroscopy. Reference solutions were prepared by simply mixing the indicated volumes of donor and acceptor solutions at the start of the incubation period and analyzed later with the acceptor solutions. […]
After the incubation period, the reference solution was analyzed by LCMS as described under […]
No permeation can be observed in any of the UV-quantified experiments. […]

M^pro [3] = target: T1, M^pro; assay: Binding to M^pro by ITC; parameters: DP / DH: unit not given here
in vitro = settings: human

For `COc1cccc2[nH]c(C(=O)N[C@@H](CC(C)C)C(=O)N[C@H](/C=C/[N+](=O)[O-])C[C@@H]3CCNC3=O)cc12` [FGA146], the “Fraction bound, Absorption” value (M^pro [1]; ligand concentration 0.1) was 0.00706, the “Fraction bound, Fluorescence” value (M^pro [1]; ligand concentration 0.1) was 0.00606 and the “Fraction bound, Absorption” value (M^pro [1]; ligand concentration 0.5) was 0.0199. The “Fraction bound, Fluorescence” value (M^pro [1]; ligand concentration 0.5) was 0.0299, the “Fraction bound, Absorption” value (M^pro [1]; ligand concentration 1) was 0.07275 and the “Fraction bound, Fluorescence” value (M^pro [1]; ligand concentration 1) was 0.06275. For the same compound, the “Fraction bound, Absorption” value (M^pro [1]; ligand concentration 5) was 0.3362, the “Fraction bound, Fluorescence” value (M^pro [1]; ligand concentration 5) was 0.3162 and the “Fraction bound, Absorption” value (M^pro [1]; ligand concentration 10) was 0.6468. For the same compound, the “Fraction bound, Fluorescence” value (M^pro [1]; ligand concentration 10) was 0.623, the “Fraction bound, Absorption” value (M^pro [1]; ligand concentration 25) was 0.9146 and the “Fraction bound, Fluorescence” value (M^pro [1]; ligand concentration 25) was 0.8218. For the same compound, the “Fraction bound, Absorption” value (M^pro [1]; ligand concentration 50) was 0.9678, the “Fraction bound, Fluorescence” value (M^pro [1]; ligand concentration 50) was 0.9995 and the “Fraction bound, Absorption” value (M^pro [1]; ligand concentration 100) was 1.004. For the same compound, the “Fraction bound, Fluorescence” value (M^pro [1]; ligand concentration 100) was 0.9916, the Kd (M^pro [1]; ultracentrifugation, 25 °C) was 7.28 ± 0.58 µM and the “equilibrium hydrated to free warhead” value ([2]; TRIS buffer pH 7.5, ca. 30 °C) was 85/15. The “time to 50% conversion to hydrated warhead” value ([2]; TRIS buffer pH 7.5, ca. 30 °C) was 1 h, the “time until hydration equilibrium is reached” value ([2]; TRIS buffer pH 7.5, ca. 30 °C) was 4 h and the “AUCpeak1/AUCTotal (hydrated, m/z 504)” value ([2]; t 0 h) was 10%. For the same compound, the “AUCpeak2/AUCTotal (intact, m/z 486)” value ([2]; t 0 h) was 90%, the “AUCpeak1/AUCTotal (hydrated, m/z 504)” value ([2]; t 0.25 h) was 20% and the “AUCpeak2/AUCTotal (intact, m/z 486)” value ([2]; t 0.25 h) was 80%. For the same compound, the “AUCpeak1/AUCTotal (hydrated, m/z 504)” value ([2]; t 0.5 h) was 34%, the “AUCpeak2/AUCTotal (intact, m/z 486)” value ([2]; t 0.5 h) was 66% and the “AUCpeak1/AUCTotal (hydrated, m/z 504)” value ([2]; t 1 h) was 47% and 53%. The “AUCpeak2/AUCTotal (intact, m/z 486)” value ([2]; t 1 h) was 47% and 53%, the “AUCpeak1/AUCTotal (hydrated, m/z 504)” value ([2]; t 3 h) was 78% and the “AUCpeak2/AUCTotal (intact, m/z 486)” value ([2]; t 3 h) was 22%. For the same compound, the “AUCpeak1/AUCTotal (hydrated, m/z 504)” value ([2]; t 4 h) was 83%, the “AUCpeak2/AUCTotal (intact, m/z 486)” value ([2]; t 4 h) was 17% and the “AUCpeak1/AUCTotal (hydrated, m/z 504)” value ([2]; t 5 h) was 85%. The “AUCpeak2/AUCTotal (intact, m/z 486)” value ([2]; t 5 h) was 15%, the “AUCpeak1/AUCTotal (hydrated, m/z 504)” value ([2]; t 7 h) was 85% and the “AUCpeak2/AUCTotal (intact, m/z 486)” value ([2]; t 7 h) was 14%. For the same compound, the “AUCpeak1/AUCTotal (hydrated, m/z 504)” value ([2]; t 30 h) was 83%, the “AUCpeak2/AUCTotal (intact, m/z 486)” value ([2]; t 30 h) was 14% and the “AUCpeak1/AUCTotal (hydrated, m/z 504)” value ([2]; t 31 h) was 83%. The “AUCpeak2/AUCTotal (intact, m/z 486)” value ([2]; t 31 h) was 14%, the “conversion to hydrated warhead” value ([2]; time to LCMS (<10 min)) was 10% and the permeation (Permeability, PAMPA) was “No permeation”.
`CC(C)C[C@H](NC(=O)OCc1ccccc1)C(=O)N[C@H](/C=C/[N+](=O)[O-])C[C@@H]1CCNC1=O` [FGA147] showed a Kd (M^pro [3]; ITC, 25 °C) of 2.86 ± 0.25 µM, a DH (M^pro [3]; Molar ratio 0.39455) of -0.9026 and a DH (M^pro [3]; Molar ratio 0.72682) of -0.8799. It also gave a DH (M^pro [3]; Molar ratio 1.06223) of -0.8369, a DP (M^pro [3]; Time 0.08333 min) of -0.00244 and a DP (M^pro [3]; Time 0.10000 min) of -0.00119. The DP (M^pro [3]; Time 0.11667 min) was -0.00067 and the CC50 (in vitro) was over 100 µM.
